Consider eight molecules from PubChem BioAssay (NCI).

Several values for one entry are separate records, joined by “and”; a condition that tells them apart may be missing. Equal values may be shown once.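 Where inhibition never reached the appropriate level, the endpoint shown equals the highest concentration tested. Otherwise, values were interpolated linearly from a five-concentration, 48-hour dose response in 96-well plates. GI50 is the concentration that inhibits growth by half. TGI is the concentration that stops growth completely.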

Some test systems named below: SK-MEL-2 melanoma; EKVX NSCLC; SNB-19 CNS; OVCAR-3 ovarian; UACC-257 melanoma; HCC-2998 colon; LOX IMVI melanoma; A498 renal; HOP-92 NSCLC; U251 CNS.
Common to all, as to assay: growth of human tumour cells (NCI), 48 h

For `C[C@@]12CCC[C@@](C)(C(=O)O)C1CC[C@]13C=C(CO)[C@](O)(CCC12)C3` (some centres undefined), the GI50 in the assay on SK-MEL-2 melanoma, in the assay with EKVX NSCLC, in the assay with SNB-19 CNS, in the assay on OVCAR-3 ovarian, in the assay with UACC-257 melanoma and with HCC-2998 colon was above 100000 nM throughout. In addition, the GI50 in the assay with LOX IMVI melanoma, with A498 renal, in the assay with HOP-92 NSCLC and with U251 CNS was above 100000 nM throughout. Further, the TGI in the assay on SK-MEL-2 melanoma, in the assay with EKVX NSCLC, with SNB-19 CNS, in the assay on OVCAR-3 ovarian, in the assay on UACC-257 melanoma and in the assay on HCC-2998 colon was above 100000 nM each time. The TGI in the assay on LOX IMVI melanoma, in the assay with A498 renal, in the assay on HOP-92 NSCLC and in the assay on U251 CNS was above 100000 nM in each case.

Take `CC1C(=O)CCC1C(Sc1ccccc1)(Sc1ccccc1)Sc1ccccc1` (centres undefined): the TGI in the assay on SK-MEL-2 melanoma, in the assay with EKVX NSCLC, with SNB-19 CNS, in the assay with OVCAR-3 ovarian, with UACC-257 melanoma and in the assay on HCC-2998 colon was above 100000 nM each time. The TGI in the assay on LOX IMVI melanoma is 68500 nM; with A498 renal, above 100000 nM; in the assay on HOP-92 NSCLC, 81800 nM; in the assay with U251 CNS, above 100000 nM.

Turning to `CCN(CC)CCC(CNc1c2ccc([N+](=O)[O-])cc2nc2cc(OC)c(OC)cc12)c1ccccc1` (centres undefined), the GI50 in the assay on SK-MEL-2 melanoma was 229 nM and 81.6 nM; in the assay on EKVX NSCLC, 335 nM and 264 nM; in the assay with SNB-19 CNS it was 214 nM and 177 nM; with OVCAR-3 ovarian it was 269 nM and 92.7 nM; in the assay on UACC-257 melanoma, 410 nM and 365 nM; in the assay with HCC-2998 colon it was 138 nM and 114 nM. The GI50 with LOX IMVI melanoma was 568 nM and 527 nM; with A498 renal, 1690 nM and 1190 nM; in the assay with HOP-92 NSCLC it was 258 nM and 80.9 nM; in the assay with U251 CNS it was 294 nM and 203 nM. In addition, the TGI is 609 nM and 253 nM in the assay on SK-MEL-2 melanoma; 1380 nM and 1130 nM in the assay on EKVX NSCLC; 1240 nM in the assay with SNB-19 CNS; 1010 nM and 335 nM in the assay on OVCAR-3 ovarian; 1430 nM and 1300 nM with UACC-257 melanoma; 348 nM and 284 nM in the assay on HCC-2998 colon. In addition, the TGI in the assay on LOX IMVI melanoma was 1860 nM; with A498 renal it was 3120 nM and 2520 nM; with HOP-92 NSCLC it was 850 nM and 404 nM; with U251 CNS, 1130 nM and 1220 nM.

With `O=C1OCC2=C1C(c1cccc([N+](=O)[O-])c1)c1cc3c(cc1N2CCO)CCC3` (centres undefined), the GI50 in the assay on SK-MEL-2 melanoma was 2800 nM; in the assay on EKVX NSCLC it was 280 nM; in the assay with SNB-19 CNS it was 200 nM; in the assay on OVCAR-3 ovarian it was 96.1 nM; in the assay on UACC-257 melanoma, 11500 nM; with HCC-2998 colon, 188 nM. Also, the GI50 in the assay with LOX IMVI melanoma is 286 nM; in the assay on A498 renal it was 68.4 nM; in the assay on HOP-92 NSCLC, 2660 nM; with U251 CNS, 218 nM. For the same molecule, the TGI in the assay on SK-MEL-2 melanoma is 48000 nM; in the assay on EKVX NSCLC it was above 50000 nM; with SNB-19 CNS it was above 50000 nM; in the assay with OVCAR-3 ovarian, 518 nM; with UACC-257 melanoma, above 50000 nM; in the assay on HCC-2998 colon, 9580 nM. The TGI in the assay with LOX IMVI melanoma was 8290 nM; in the assay with A498 renal, 376 nM; with HOP-92 NSCLC, above 50000 nM; in the assay on U251 CNS it was above 50000 nM.

Turning to `CCCCCCCCCCCCCCCCCC(=O)[O][Sn]([CH2]CCC)([CH2]CCC)[CH2]CCC`, the GI50 in the assay with SK-MEL-2 melanoma is 171 nM; with EKVX NSCLC, 71.3 nM; in the assay on SNB-19 CNS, 167 nM; in the assay on OVCAR-3 ovarian it was 126 nM; in the assay with UACC-257 melanoma, 144 nM; in the assay on HCC-2998 colon, 139 nM. The GI50 is 133 nM in the assay on LOX IMVI melanoma, 90.4 nM in the assay on A498 renal, 90.8 nM with HOP-92 NSCLC and 153 nM with U251 CNS. Also, the TGI came out at 369 nM with SK-MEL-2 melanoma; 297 nM with EKVX NSCLC; 338 nM in the assay with SNB-19 CNS; 254 nM in the assay on OVCAR-3 ovarian; 293 nM with UACC-257 melanoma; 279 nM in the assay with HCC-2998 colon. The TGI with LOX IMVI melanoma is 380 nM; in the assay with A498 renal it was 232 nM; in the assay with HOP-92 NSCLC it was 273 nM; in the assay with U251 CNS, 319 nM.

Take `CN(C)c1cc2c(cc1Sc1nc3c(N)nccc3n1CCNCC(C)(C)C)OCO2`: the GI50 in the assay on SK-MEL-2 melanoma is 1050 nM; in the assay with EKVX NSCLC, 1340 nM; in the assay on SNB-19 CNS, 1000 nM; with OVCAR-3 ovarian, 614 nM; with UACC-257 melanoma, 473 nM; in the assay with HCC-2998 colon it was 805 nM. Also, the GI50 in the assay on LOX IMVI melanoma is 417 nM; in the assay with A498 renal, 1460 nM; in the assay on HOP-92 NSCLC it was 334 nM; in the assay with U251 CNS, 726 nM. The TGI in the assay with SK-MEL-2 melanoma stood at 16900 nM; with EKVX NSCLC, 35200 nM; in the assay with SNB-19 CNS, 24200 nM; in the assay with OVCAR-3 ovarian it was 15800 nM; in the assay on UACC-257 melanoma, 11900 nM; in the assay with HCC-2998 colon it was 6030 nM. For the same molecule, the TGI with LOX IMVI melanoma turned out to be 4410 nM; in the assay with A498 renal, 10100 nM; in the assay with HOP-92 NSCLC it was 2490 nM; with U251 CNS, 14800 nM.

With `COc1cc2c3c(n(CCCN=[N+]=[N-])c(=O)c2cc1OC)-c1ccc(N)cc1C3=O`, the GI50 with SK-MEL-2 melanoma is 622 nM; in the assay on EKVX NSCLC, 1090 nM; in the assay on SNB-19 CNS, 125 nM; in the assay on OVCAR-3 ovarian, 249 nM; in the assay with UACC-257 melanoma, 431 nM; with HCC-2998 colon, 258 nM. The GI50 was 92.3 nM with LOX IMVI melanoma, 75.9 nM in the assay on A498 renal, 163 nM in the assay on HOP-92 NSCLC and 83.2 nM in the assay with U251 CNS. Also, the TGI was 1550 nM in the assay with SK-MEL-2 melanoma; 8550 nM in the assay on EKVX NSCLC; 923 nM with OVCAR-3 ovarian; 1490 nM in the assay on UACC-257 melanoma; 856 nM in the assay with HCC-2998 colon; 466 nM in the assay on LOX IMVI melanoma. Further, the TGI in the assay with A498 renal is 484 nM; with HOP-92 NSCLC, 860 nM; in the assay with U251 CNS, 766 nM.

Turning to `O=C1C(=O)c2ccccc2C=C1[N+](=O)[O-]`, the TGI with SK-MEL-2 melanoma was 99500 nM; in the assay on EKVX NSCLC, 56800 nM; with SNB-19 CNS it was above 100000 nM; in the assay on OVCAR-3 ovarian it was 85200 nM; with UACC-257 melanoma, 58900 nM; with HCC-2998 colon, above 100000 nM. The TGI in the assay with LOX IMVI melanoma, in the assay with A498 renal, in the assay on HOP-92 NSCLC and in the assay with U251 CNS was above 100000 nM each time.
